Laboratory results as given in ChEMBL document CHEMBL5584353, “Design, Synthesis, and Biological Evaluation of Potent EZH2/LSD1 Dual Inhibitors for Prostate Cancer” (J Med Chem, 2024).
The source made the active and inactive calls. No cut-off for these calls is given here.

Tests used:
LNCaP [1] = assay: Antimigratory activity in human LNCaP cells assessed as downregulation of N-cadherin expression at 3 to 10 uM incubated for 48 hrs by Western blotting analysis; type: functional, cell-based; conditions: dose 3-10 µM
[2] = Toxicity in BALB/c mouse xenografted with human 22Rv1 cells assessed as kidney morphological change at 80 mg/kg,ip administrated daily for 31 days; type: organism-based, CWR22R; conditions: in vivo, 744 h, time 31 day
CWR22R [3] = assay: Induction of apoptosis in human 22Rv1 cells assessed as upregulation of cleaved caspase-3 expression incubated for 48 hr by Western blotting analysis; type: functional, cell-based
[4] = Half life in BALB/c mouse at 50 mg/kg,ip measured upto 24 hrs by HPLC-MS/MS analysis; type: ADME, organism-based; conditions: in vivo
PC-3 [5] = assay: Antimigratory activity in human PC-3 cells assessed as downregulation of E-cadherin expression at 3 to 10 uM incubated for 48 hrs by Western blotting analysis; type: functional, cell-based; conditions: dose 3-10 µM
LNCaP [6] = assay: Induction of apoptosis in human LNCaP cells at 1 to 10 uM incubated for 5 days by Annexin V-FITC/PI staining based flow cytometric analysis; type: functional, cell-based; conditions: dose 1-10 µM, time 5.0 day
[7] = Cytotoxicity against human HPNE cells incubated for 6 to 7 days by MTS assay; type: toxicity, cell-based; conditions: time 6-7 day
[8] = Metabolic stability in Sprague-Dawley rat hepatocyte assessed as compound remaining at 20 uM incubated for 60 mins by HPLC-MS/MS analysis; type: ADME, cell-based; conditions: hepatocytes, read-out: Stability
CWR22R [9] = assay: Induction of apoptosis in human 22Rv1 cells assessed as upregulation of cleaved PARP expression incubated for 48 hr by Western blotting analysis; type: functional, cell-based
PC-3 [10] = assay: Antimigratory activity in human PC-3 cells assessed as upregulation of E-cadherin expression at 3 to 10 uM incubated for 48 hrs by Western blotting analysis; type: functional, cell-based; conditions: dose 3-10 µM
[11] = Cmax in BALB/c mouse at 50 mg/kg,po measured upto 24 hrs by HPLC-MS/MS analysis; type: ADME, organism-based; conditions: in vivo
[12] = AUC (0 to infinity) in BALB/c mouse at 50 mg/kg,po measured upto 24 hrs by HPLC-MS/MS analysis; type: ADME, organism-based; conditions: in vivo
[13] = target: T1, Amine oxidase [flavin-containing] A (Homo sapiens, UniProt P21397); assay: Inhibition of MAO-A (unknown origin)
T1 sequence (P21397 whole entry): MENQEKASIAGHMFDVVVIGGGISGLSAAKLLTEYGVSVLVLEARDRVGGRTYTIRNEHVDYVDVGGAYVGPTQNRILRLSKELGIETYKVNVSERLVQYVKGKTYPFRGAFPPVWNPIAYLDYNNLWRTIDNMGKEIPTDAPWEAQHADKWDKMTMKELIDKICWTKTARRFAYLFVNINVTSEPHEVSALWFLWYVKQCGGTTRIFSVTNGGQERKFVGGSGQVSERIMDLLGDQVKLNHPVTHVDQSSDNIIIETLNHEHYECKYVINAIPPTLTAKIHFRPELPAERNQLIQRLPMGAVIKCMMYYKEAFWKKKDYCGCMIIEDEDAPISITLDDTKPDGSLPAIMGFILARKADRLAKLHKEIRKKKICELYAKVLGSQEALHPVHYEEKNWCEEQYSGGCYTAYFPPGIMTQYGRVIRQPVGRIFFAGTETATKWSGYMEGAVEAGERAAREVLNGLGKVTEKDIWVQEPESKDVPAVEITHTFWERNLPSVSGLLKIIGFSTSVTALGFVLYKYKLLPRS

[14] = Metabolic stability in Sprague-Dawley rat hepatocyte assessed as compound remaining at 20 uM incubated for 180 mins by HPLC-MS/MS analysis; type: ADME, cell-based; conditions: hepatocytes, read-out: Stability
[15] = Metabolic stability in Sprague-Dawley rat hepatocyte assessed as intrinsic clearance at 20 uM incubated for 60 mins by HPLC-MS/MS analysis; type: ADME, cell-based; conditions: hepatocytes, 1 h
CWR22R [16] = assay: Growth inhibition of human 22Rv1 cells incubated for 6 to 7 days by MTS assay; type: functional; conditions: time 6-7 day
[17] = Toxicity in BALB/c mouse xenografted with human 22Rv1 cells assessed as heart morphological change at 80 mg/kg,ip administrated daily for 31 days; type: organism-based, CWR22R; conditions: in vivo, 744 h, time 31 day
[18] = Clearance in BALB/c mouse at 50 mg/kg,iv measured upto 24 hrs by HPLC-MS/MS analysis; type: ADME, organism-based; conditions: in vivo
[19] = Clearance in BALB/c mouse at 50 mg/kg,ip measured upto 24 hrs by HPLC-MS/MS analysis; type: ADME, organism-based; conditions: in vivo
[20] = target: Lysine-specific histone demethylase 1A (Homo sapiens, UniProt O60341); assay: Inhibition of recombinant human LSD1 using Histone H3 as fluorometric substrate incubated for 30 mins by HRP based plate reader assay
BT-549 = assay: Antiproliferative activity against human BT-549 cells assessed as inhibition of cell growth incubated for 6 to 7 days by MTS assay; type: functional, cell-based; conditions: time 6-7 day
[21] = Tmax in BALB/c mouse at 50 mg/kg,ip measured upto 24 hrs by HPLC-MS/MS analysis; type: ADME, organism-based; conditions: in vivo
[22] = AUC (0 to infinity) in BALB/c mouse at 50 mg/kg,ip measured upto 24 hrs by HPLC-MS/MS analysis; type: ADME, organism-based; conditions: in vivo

half-life [4]: 3.5 h
remaining at 1 h, 20 µM [8]: 84.3%
Cmax [11]: 7410 ng/mL
AUC(0-inf) [12]: 41400 ng·h/mL
IC50 [13]: 1.54 µM
remaining at 3 h, 20 µM [14]: 70%
CLH [15]: 4 µL/min/mg
clearance [18]: 6.67 mL/min/kg
CL/F [19]: 8.33 mL/min/kg
IC50 [20]: > 3 µM
Tmax [21]: 2 h
AUC(0-inf) [22]: 112000 ng·h/mL
SMILES: CCN(c1cc(-c2ccc([C@@H]3C[C@H]3N(CC3CCOCC3)C(=O)OC(C)(C)C)cc2)cc(C(=O)NCc2c(C)cc(C)[nH]c2=O)c1C)C1CCOCC1 (racemic)
Activity (LNCaP [1]): Active
Activity [2]: Non-Toxic
Activity (CWR22R [3]): Dose-Dependent Effect
Activity (PC-3 [5]): Active
Activity (LNCaP [6]): Active
Activity [7]: Non-Toxic
Activity (CWR22R [9]): Dose-Dependent Effect
Activity (PC-3 [10]): Active
GI50 (CWR22R [16]): 3.96 µM
Activity [17]: Non-Toxic
Activity (BT-549): Active
